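Briefly, cells in 96-well plates were exposed to five compound concentrations for 48 h, and endpoints were estimated by linear interpolation. The concentration for 50% growth inhibition is given as GI50.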 Calls of active or inactive are those of the source. Cut-off read from the data, not from the text of the source: active = GI50 up to about 1.1 µM and inactive = higher.
Key:
Assay in all cases: NCI anticancer screen, dose series, 48 h
[1] = system: SF-268
[2] = system: UO-31
[3] = system: KM-20L2
[4] = system: OVCAR-5
[5] = system: UACC-257
[6] = system: NCI/ADR-RES
[7] = system: EKVX
[8] = system: DMS-114
[9] = system: CAKI-1
[10] = system: Malme-3M
[11] = system: MOLT-4
[12] = system: KM12
[13] = system: HT-29
[14] = system: HOP-62
[15] = system: MCF7
[16] = system: SN12C
[17] = system: SK-MEL-28
[18] = system: OVCAR-4
[19] = system: HOP-92
[20] = system: SW-620
[21] = system: K562
[22] = system: A549
[23] = system: SF-539
[24] = system: SF-295
[25] = system: LOX IMVI
[26] = system: XF498
[27] = system: SK-OV-3
[28] = system: UACC-62
[29] = system: IGROV-1
[30] = system: HL-60
[31] = system: HCC 2998
[32] = system: NCI-H522
[33] = system: SNB-19
[34] = system: DMS-273
[35] = system: HOP-18
[36] = system: M19-MEL
[37] = system: SK-MEL-5
[38] = system: NCI-H460
[39] = system: RPMI-8226
[40] = system: RXF 393
[41] = system: A498
[42] = system: U-251
[43] = system: COLO 205
[44] = system: HCT-116
[45] = system: NCI-H23
[46] = system: HCT-15
[47] = system: SK-MEL-2
[48] = system: OVCAR-8
[49] = system: SNB-78
[50] = system: NCI-H226
[51] = system: SNB-75
[52] = system: CCRF-CEM
[53] = system: DLD-1
[54] = system: OVCAR-3

In the case of `CSCSCC(CO)NC(=O)/C(C)=C\c1c(C)[nH]c(=O)[nH]c1=O` (centres undefined), the GI50 [1] is reported as > 250 µM (inactive), the GI50 [2] is reported as > 250 µM (inactive) and the GI50 [3] is reported as > 250 µM (inactive). The GI50 [4] was 207 µM (inactive), the GI50 [5] was 170 µM (inactive) and the GI50 [6] was > 250 µM (inactive). The GI50 [7] was > 250 µM (inactive), the GI50 [8] was > 250 µM (inactive) and the GI50 [9] was 18.3 µM (inactive). For the same molecule, the GI50 [10] was > 250 µM (inactive), the GI50 [11] was > 250 µM (inactive) and the GI50 [12] was 200 µM (inactive). For the same molecule, the GI50 [13] was > 250 µM (inactive), the GI50 [14] was > 250 µM (inactive) and the GI50 [15] was > 250 µM (inactive). The GI50 [16] was > 250 µM (inactive), the GI50 [17] was > 250 µM (inactive) and the GI50 [18] was > 250 µM (inactive). The GI50 [19] was 20.3 µM (inactive), the GI50 [20] was 237 µM (inactive) and the GI50 [21] was > 250 µM (inactive). For the same molecule, the GI50 [22] was > 250 µM (inactive), the GI50 [23] was > 250 µM (inactive) and the GI50 [24] was > 250 µM (inactive). For the same molecule, the GI50 [25] was > 250 µM (inactive), the GI50 [26] was > 64.6 µM (inactive) and the GI50 [27] was > 250 µM (inactive). The GI50 [28] was > 250 µM (inactive), the GI50 [29] was > 250 µM (inactive) and the GI50 [30] was > 250 µM (inactive). The GI50 [31] was > 250 µM (inactive), the GI50 [32] was > 250 µM (inactive) and the GI50 [33] was 48.3 µM (inactive). For the same molecule, the GI50 [34] was > 250 µM (inactive), the GI50 [35] was > 250 µM (inactive) and the GI50 [36] was > 250 µM (inactive). The GI50 [37] was > 250 µM (inactive), the GI50 [38] was > 250 µM (inactive) and the GI50 [39] was > 250 µM (inactive). For the same molecule, the GI50 [40] was > 250 µM (inactive), the GI50 [41] was > 250 µM (inactive) and the GI50 [42] was > 250 µM (inactive). For the same molecule, the GI50 [43] was > 250 µM (inactive), the GI50 [44] was > 250 µM (inactive) and the GI50 [45] was > 250 µM (inactive). For the same molecule, the GI50 [46] was 225 µM, the GI50 [47] was > 250 µM (inactive) and the GI50 [48] was > 250 µM (inactive). For the same molecule, the GI50 [49] was > 250 µM (inactive), the GI50 [50] was > 250 µM (inactive) and the GI50 [51] was > 250 µM (inactive). The GI50 [52] was > 250 µM (inactive), the GI50 [53] was > 250 µM (inactive) and the GI50 [54] was > 250 µM (inactive).

— ChEMBL document CHEMBL1201862, “PubChem BioAssay data set” (2004)
